Test results reported in patent US10617677B2, “Nuclear transport modulators and uses thereof” (Biogen MA Inc., priority 2012, dated 2020).
Entries after “also recorded” stand apart in the source; their conditions may differ.

Key:
Assay type in all cases: in vivo
[1] = system: BCCI injury to the medial frontal cortex; assay: Bilateral controlled cortical impact (BCCI) injury in rats
Protocol: Bilateral controlled cortical impact (BCCI) injury to the medial frontal cortex (MFC) of male Sprague Dawley rats was induced by a cortical contusion device. After CCI any cortical surface hemorrhaging was controlled, and the fascia and scalp were sutured. Sham-operated rats were anesthetized, mounted in the stereotaxic apparatus, and a craniotomy was performed.
Progesterone 16 mg/mL was dissolved in 22.5% 2-hydroxypropyl-β-cyclodextrin and the initial injection (16 mg/kg) was given i.p. 1 h after injury. The remaining injections (all 16 mg/kg) were given subcutaneously at 6 h post-injury and continued for 5 days after injury. Progesterone injections were made at a concentration of 1 mL/kg. Progesterone was used as a control.
Compound 1 0.2, 0.4, and 0.6 mg/mL was suspended in vehicle (0.6% w/v Pluronic® F-68 and 0.6% w/v PVP K-29/32 in water) and administered p.o at a concentration of 10 mL/kg, 16 h before injury and 2 h after injury, and administrations were continued for 4 days. Control rats received equivalent injections of the vehicle for Compound 1, at the same time points.
The Morris Water Maze (MWM) test is a spatial navigation task that measures learning and memory in rodents using visual cues. Subjects learn over the course of days to find a hidden platform. A MWM test was conducted two weeks after injury. Male Sprague Dawley rats were allowed to swim in the pool until they reached the platform located in the southwest quadrant of a tank, or until 90 seconds had elapsed. Behavior was tracked by a video camera hanging from above the pool and recorded and analyzed using video track software (ANY-maze).
The expression level of several cytokines in plasma harvested from rats in each treatment group was measured. The samples were received frozen and stored at −80° C. On the day of the experiment, the samples were thawed, diluted four-fold, and analyzed for cytokine expression on a Luminex platform. The samples were analyzed for the cytokines GRO/KC, IFNy, IL-1B, IL-6, IL-10, IL-12p70 and TNFa, using a multipliex kit manufactured by Millipore. […] The biggest change was in IL-10.
Quantitative measures of cell density were collected from anti-NeuN immunolabeled subsections from approximately 2-3 mm anterior to bregma. Regions of interest (ROIs) were drawn (blind to experimental condition) around Layers IV-VI in the cortical region adjacent to the injury site in CCI-treated animals or in the equivalent zone (dorsal cortex) in sham animals. An ROI of similar area was also evaluated in a ventral cortical region of the same section. Cell identification was performed using the cell counting module of Keyence BZ-II Analyzer software. Cell-to-gray matter (CG) area coefficients were determined for each ROI. […] The CCI-induced reduction in CG coefficient was mitigated by treatment with Compound 1 in the ventral cortex (−3% compared to sham; p=0.09). Although the effect of Compound 1 versus vehicle treatment in the ventral cortex is not statistically significant, it is anticipated that this effect would breach statistical significance in a larger study. No effect of Compound 1 was detected in the dorsal cortical region (−32% compared to sham) immediately adjacent to the injury site. The difference in the observed effect of Compound 1 on the ventral region versus the dorsal region may be a threshold effect related to the degree of injury, which was inversely related to the distance from the injury site. Thus, the damage to the dorsal cortical region could be too severe to be rescued by Compound 1 under these conditions.
Immunofluorescence was performed to evaluate the impact of TBI on several pathways of immune response, and to determine if Compound 1 might be mediating its neuroprotective effects via one or more of those pathways. […]

[2] = system: obese Zucker rats; assay: Food intake and body weight in Zucker rats
Protocol: Twenty-one (21) male Zucker rats aged 7 months were allocated into 3 groups of N=7 based on equivalent body weights and food intakes. An additional group of N=7 age matched Zucker lean controls were included as a control. Body weights and food and water intakes were measured at approximately the same time each day (14:30-15:30 h). On treatment days, dosing was at 14:30-15:30 h (approximately 2 hours before lights off).
The Zucker obese and lean controls were orally treated with vehicle (10 mL/kg dose volume; 0.5% Pluronic F68 and 0.5% PVP K29/32 in water) on each weekday. Both Compound 2 (1.5 mg/kg and 3 mg/kg) groups were orally treated on each weekday (10 mL/kg dose volume; 0.5% Pluronic F68 and 0.5% PVP K29/32 in water). Prior to the treatment phase, 4 days baseline data were collected. The treatment phase was for 16 days and a washout phase of 6 days was also included.

[3] = system: diet-induced obesity; assay: Diet-induced obesity (DIO) model in Sprague-Dawley rats
Protocol: Male Sprague-Dawley rats of age 2 months were placed on a high fat diet (Research Diets Inc., product code D12492, 60% kcal % fat) for 3 months. A group of age-matched rats were fed normal lab chow (LabDiet 5001, ˜13% kcal % fat), these animals served as controls for DIO group.
At age 4 months, and 2 months into placement of high fat diet, all rats were allocated into 3 groups of N=7 based on equivalent body weights and food intakes. Body weights and food and water intakes were measured at approximately the same time each day. On treatment days, dosing was at approximately 2 hours before lights off.
The DIO control group was treated with vehicle (oral, 10 mL/kg dose volume; 0.5% Pluronic F68 and 0.5% PVP K29/32 in water) on each weekday. The Compound 2 1.5 mg/kg group was orally treated on each weekday throughout the treatment phase (dose 10 mL/kg dose volume; 0.5% Pluronic F68 and 0.5% PVP K29/32 in water). The Compound 2 3 mg/kg group (10 mL/kg dose volume; 0.5% Pluronic F68 and 0.5% PVP K29/32 in water) was orally treated initially once daily on each weekday for week 1, then twice weekly (Monday, Wednesday) for week 2. During treatment weeks 3 and 4, Compound 2 3 mg/kg treatment continued twice weekly, except dosing was on Monday and Thursday.
Prior to the treatment phase, 3 days baseline data were collected. The treatment phase was for 4 weeks. A washout phase of 10 days was also included.
Compound 2 was supplied in powder form. […] Active percentage was adjusted using BEW of 1.437 and prepared by dissolving into 0.5% w/v Pluronic F-68 and 0.5% w/v PVP K-29-32 vehicle solution. The vehicle solution was prepared on a weekly basis while Compound 2 was prepared fresh every 2 days and stored at +4° C. Animals were dosed at a volume of 10 mL/kg. Individual doses were calculated based on the most recent body weights to provide the proper mg/kg/day dosage.

[4] = 1.5-3 mg/kg oral, 16 day treatment period
[5] = 1.5-3 mg/kg oral, 28 day treatment period

| SMILES | plasma IL-10 ([1]; 6 mg/kg) | qualitative visual inspection of whole brains (damage to dorsal-medial cortical tissue) ([1]; 6 mg/kg) | latency to find the hidden platform (MWM test), significance ([1]; 6 mg/kg p.o.) | latency to find the hidden platform (MWM test) compared to vehicle-treated BCCI-injured rats ([1]; 2, 4 and 6 mg/kg p.o.) | cell-to-gray matter (CG) coefficient, NeuN labeling, compared to sham ([1]; dorsal cortical region adjacent to the injury site) | TNFα immunopositive cells in tissue surrounding the injury site ([1]; immunofluorescence) | secondary injury responses (Rat IgG and TNFα labeling) ([1]; immunofluorescence) | cell-to-gray matter (CG) coefficient, NeuN labeling, compared to sham ([1]; ventral cortex) | body weight gain versus Zucker vehicle group ([2]; 1.5 mg/kg oral) | body weight gain versus Zucker vehicle group ([2]; 3 mg/kg oral) | body weight compared to Zucker control group [2, 4] | daily food intake compared to Zucker control group [2, 4] | water intake [2, 4] | body weight compared to DIO control group [3, 5] | daily food intake compared to DIO control group [3, 5] | water intake [3, 5] | body weight gain (percentage of body weight change from study day 3) compared to DIO controls ([3]; 1.5 and 3 mg/kg, treatment days 7 and 14) | body weight compared to DIO controls ([3]; washout phase) |
| --- | --- | --- | --- | --- | --- | --- | --- | --- | --- | --- | --- | --- | --- | --- | --- | --- | --- | --- |
| CC(C)(C)C(=O)NNC(=O)/C=C\n1cnc(-c2cc(C(F)(F)F)cc(C(F)(F)F)c2)n1 [Compound 1, (Z)-3-(3-(3,5-bis(trifluoromethyl)phenyl)-1H-1,2,4-triazol-1-yl)-N′-pivaloylacrylohydrazide] | reduced IL-10 compared to vehicle-treated control group | damage ranging from moderate to minimal | significant effects on days 17 and 18 after injury with 6 mg/kg | dose dependent decrease in the latency to find the hidden platform | −32% | largely absent | reduces secondary injury responses | −3% | – | – | – | – | – | – | – | – | – | – |
| O=C(/C=C\n1cnc(-c2cc(C(F)(F)F)cc(C(F)(F)F)c2)n1)NNC(=O)CN1CCOCC1 [Compound 2, (Z)-3-(3-(3,5-bis(trifluoromethyl)phenyl)-1H-1,2,4-triazol-1-yl)-N′-(2-morpholinoacetyl)acrylohydrazide] | – | – | – | – | – | – | – | – | no significant difference in weight gain | significant difference in body weight gain; also recorded: lower weight gain | dose-related decrease | dose-related decrease; also recorded: dose dependent decrease | significantly increased water intake | dose-related decrease | dose-related decrease; also recorded: decreases daily food intake in a dose dependent manner | significantly increased water intake | significant reduction in weight gain; also recorded: affects body weight gain at both 1.5 and 3 mg/kg doses | remained lower than DIO controls |
